Source: ChEMBL document CHEMBL3124838, “Discovery of 6-aryl-azabenzimidazoles that inhibit the TBK1/IKK-ε kinases” (Bioorg Med Chem Lett, 2014)

How the values were obtained:
[1] = target: T1, Protein kinase C epsilon type (Homo sapiens) (UniProt Q02156); experiment: Inhibition of human PKC-epsilon assessed as residual activity at 1 uM relative to control
T1 sequence (whole entry): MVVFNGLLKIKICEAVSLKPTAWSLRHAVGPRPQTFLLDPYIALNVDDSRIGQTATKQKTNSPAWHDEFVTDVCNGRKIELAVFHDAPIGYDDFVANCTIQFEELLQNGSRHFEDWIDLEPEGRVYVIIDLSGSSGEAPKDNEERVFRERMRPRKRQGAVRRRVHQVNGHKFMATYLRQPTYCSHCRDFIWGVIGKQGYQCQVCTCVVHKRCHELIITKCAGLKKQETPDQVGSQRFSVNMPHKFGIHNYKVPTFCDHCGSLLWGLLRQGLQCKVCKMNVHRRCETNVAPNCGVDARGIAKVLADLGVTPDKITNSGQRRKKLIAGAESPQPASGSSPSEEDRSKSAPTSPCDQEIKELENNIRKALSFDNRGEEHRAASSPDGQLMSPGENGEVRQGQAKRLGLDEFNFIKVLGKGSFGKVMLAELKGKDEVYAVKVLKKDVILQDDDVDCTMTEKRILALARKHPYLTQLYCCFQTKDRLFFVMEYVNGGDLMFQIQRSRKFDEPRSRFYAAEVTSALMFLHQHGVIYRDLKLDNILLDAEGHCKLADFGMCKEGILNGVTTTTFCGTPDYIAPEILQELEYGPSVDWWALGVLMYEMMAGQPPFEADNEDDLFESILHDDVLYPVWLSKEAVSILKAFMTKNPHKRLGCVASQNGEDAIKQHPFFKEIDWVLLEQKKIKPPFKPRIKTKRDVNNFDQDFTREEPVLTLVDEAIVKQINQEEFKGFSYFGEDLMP

[2] = target: Protein kinase C theta type (Homo sapiens) (UniProt Q04759); experiment: Inhibition of human PKC-theta assessed as residual activity at 1 uM relative to control
Sequence of Protein kinase C theta type (Homo sapiens) (Q04759 whole entry, looked up): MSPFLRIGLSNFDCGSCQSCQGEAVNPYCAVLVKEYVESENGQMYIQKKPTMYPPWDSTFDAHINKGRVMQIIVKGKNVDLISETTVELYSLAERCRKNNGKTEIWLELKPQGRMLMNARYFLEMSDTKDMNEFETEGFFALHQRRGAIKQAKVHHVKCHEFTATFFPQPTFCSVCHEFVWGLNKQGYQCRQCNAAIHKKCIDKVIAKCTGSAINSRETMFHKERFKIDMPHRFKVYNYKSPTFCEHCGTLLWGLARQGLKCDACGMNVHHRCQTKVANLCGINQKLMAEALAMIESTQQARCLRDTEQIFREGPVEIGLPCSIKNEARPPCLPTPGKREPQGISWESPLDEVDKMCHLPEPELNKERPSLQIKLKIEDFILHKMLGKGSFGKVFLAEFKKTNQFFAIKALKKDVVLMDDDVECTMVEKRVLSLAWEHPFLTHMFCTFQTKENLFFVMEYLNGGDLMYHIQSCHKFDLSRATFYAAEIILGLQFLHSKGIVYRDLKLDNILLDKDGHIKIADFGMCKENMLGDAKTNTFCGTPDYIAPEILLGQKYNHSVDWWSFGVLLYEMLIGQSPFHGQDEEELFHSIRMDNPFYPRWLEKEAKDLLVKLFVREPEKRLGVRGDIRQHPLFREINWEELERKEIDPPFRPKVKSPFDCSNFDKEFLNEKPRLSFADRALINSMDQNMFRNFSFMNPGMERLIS

[3] = target: PI3-kinase p110-alpha/p85-alpha (Homo sapiens) (UniProt P27986+P42336); experiment: Inhibition of human PI3K p110alpha/p85alpha assessed as residual activity at 1 uM relative to control; type: protein-complex assay
[4] = target: Tyrosine-protein kinase Fes/Fps (Homo sapiens) (UniProt P07332); experiment: Inhibition of human FES assessed as residual activity at 1 uM relative to control
Sequence of Tyrosine-protein kinase Fes/Fps (Homo sapiens) (P07332 whole entry): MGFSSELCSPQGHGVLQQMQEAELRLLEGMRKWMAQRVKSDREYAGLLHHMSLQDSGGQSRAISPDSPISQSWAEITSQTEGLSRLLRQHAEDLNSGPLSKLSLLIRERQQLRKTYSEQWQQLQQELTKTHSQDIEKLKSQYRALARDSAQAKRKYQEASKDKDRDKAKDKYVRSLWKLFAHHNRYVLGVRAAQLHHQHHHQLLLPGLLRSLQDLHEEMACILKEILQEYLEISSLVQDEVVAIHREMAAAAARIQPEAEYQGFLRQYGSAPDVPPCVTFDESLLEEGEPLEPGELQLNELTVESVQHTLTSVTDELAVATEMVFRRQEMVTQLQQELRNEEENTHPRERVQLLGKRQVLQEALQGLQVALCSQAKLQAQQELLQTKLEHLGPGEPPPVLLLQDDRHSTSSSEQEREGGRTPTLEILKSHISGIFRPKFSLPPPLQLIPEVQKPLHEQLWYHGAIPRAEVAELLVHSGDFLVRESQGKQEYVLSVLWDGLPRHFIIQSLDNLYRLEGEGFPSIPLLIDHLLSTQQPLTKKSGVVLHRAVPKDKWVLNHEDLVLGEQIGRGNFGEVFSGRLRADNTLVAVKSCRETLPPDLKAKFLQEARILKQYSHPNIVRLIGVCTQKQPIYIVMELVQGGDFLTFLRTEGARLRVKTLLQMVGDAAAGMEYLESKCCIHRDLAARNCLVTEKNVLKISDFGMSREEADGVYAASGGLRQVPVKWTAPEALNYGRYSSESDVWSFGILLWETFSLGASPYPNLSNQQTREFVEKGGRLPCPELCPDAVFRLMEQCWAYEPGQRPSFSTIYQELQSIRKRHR

[5] = target: T2, Mitogen-activated protein kinase kinase kinase 7 (Homo sapiens) (UniProt O43318); experiment: Inhibition of human TAK1 assessed as residual activity at 1 uM relative to control
T2 sequence (whole entry): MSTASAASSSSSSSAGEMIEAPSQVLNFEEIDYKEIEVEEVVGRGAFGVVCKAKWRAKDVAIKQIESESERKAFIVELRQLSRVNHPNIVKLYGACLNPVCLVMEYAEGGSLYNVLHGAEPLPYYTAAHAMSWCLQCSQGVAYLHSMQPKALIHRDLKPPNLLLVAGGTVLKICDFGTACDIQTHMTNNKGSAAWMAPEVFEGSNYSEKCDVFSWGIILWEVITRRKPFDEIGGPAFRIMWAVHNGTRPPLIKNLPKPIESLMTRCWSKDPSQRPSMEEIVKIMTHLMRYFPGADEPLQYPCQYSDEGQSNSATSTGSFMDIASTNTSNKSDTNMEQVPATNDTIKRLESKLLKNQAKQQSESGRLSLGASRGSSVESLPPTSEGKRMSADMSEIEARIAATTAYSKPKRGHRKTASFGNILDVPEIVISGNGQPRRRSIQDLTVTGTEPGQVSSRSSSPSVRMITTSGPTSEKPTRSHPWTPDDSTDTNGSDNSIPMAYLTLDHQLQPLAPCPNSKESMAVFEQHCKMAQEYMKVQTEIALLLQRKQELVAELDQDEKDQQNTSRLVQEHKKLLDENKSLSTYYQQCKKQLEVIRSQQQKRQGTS

[6] = target: T3, Ephrin type-B receptor 1 (Homo sapiens) (UniProt P54762); experiment: Inhibition of human EPHB1 assessed as residual activity at 1 uM relative to control
T3 sequence (whole entry): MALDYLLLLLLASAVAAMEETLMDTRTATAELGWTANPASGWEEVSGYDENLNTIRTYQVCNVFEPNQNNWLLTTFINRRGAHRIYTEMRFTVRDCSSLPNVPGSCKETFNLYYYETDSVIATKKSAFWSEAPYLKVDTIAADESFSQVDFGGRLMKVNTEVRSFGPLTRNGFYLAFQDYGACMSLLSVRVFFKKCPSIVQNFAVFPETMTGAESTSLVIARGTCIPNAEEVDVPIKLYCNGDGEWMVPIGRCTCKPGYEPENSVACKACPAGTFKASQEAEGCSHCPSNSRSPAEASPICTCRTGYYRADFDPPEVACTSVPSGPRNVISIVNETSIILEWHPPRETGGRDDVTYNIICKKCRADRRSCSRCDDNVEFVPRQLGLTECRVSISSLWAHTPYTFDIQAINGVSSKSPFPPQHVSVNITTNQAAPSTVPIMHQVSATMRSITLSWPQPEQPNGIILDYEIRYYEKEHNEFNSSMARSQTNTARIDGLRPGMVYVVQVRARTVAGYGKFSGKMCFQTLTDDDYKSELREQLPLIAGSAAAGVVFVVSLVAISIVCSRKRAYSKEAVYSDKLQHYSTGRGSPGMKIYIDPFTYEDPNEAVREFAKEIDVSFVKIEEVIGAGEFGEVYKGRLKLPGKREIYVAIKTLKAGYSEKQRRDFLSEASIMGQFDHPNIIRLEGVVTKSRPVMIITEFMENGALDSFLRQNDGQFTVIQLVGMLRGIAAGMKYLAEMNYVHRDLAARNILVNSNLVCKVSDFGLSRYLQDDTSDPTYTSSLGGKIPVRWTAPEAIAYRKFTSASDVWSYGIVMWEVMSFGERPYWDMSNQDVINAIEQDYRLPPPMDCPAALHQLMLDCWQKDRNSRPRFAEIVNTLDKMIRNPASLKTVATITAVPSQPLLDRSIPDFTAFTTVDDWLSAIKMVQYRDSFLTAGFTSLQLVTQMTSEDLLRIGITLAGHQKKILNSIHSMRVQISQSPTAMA

[7] = target: Casein kinase I isoform gamma-1 (Homo sapiens) (UniProt Q9HCP0); experiment: Inhibition of human CK1gamma1 assessed as residual activity at 1 uM relative to control
Sequence of Casein kinase I isoform gamma-1 (Homo sapiens) (Q9HCP0 whole entry, looked up, canonical isoform): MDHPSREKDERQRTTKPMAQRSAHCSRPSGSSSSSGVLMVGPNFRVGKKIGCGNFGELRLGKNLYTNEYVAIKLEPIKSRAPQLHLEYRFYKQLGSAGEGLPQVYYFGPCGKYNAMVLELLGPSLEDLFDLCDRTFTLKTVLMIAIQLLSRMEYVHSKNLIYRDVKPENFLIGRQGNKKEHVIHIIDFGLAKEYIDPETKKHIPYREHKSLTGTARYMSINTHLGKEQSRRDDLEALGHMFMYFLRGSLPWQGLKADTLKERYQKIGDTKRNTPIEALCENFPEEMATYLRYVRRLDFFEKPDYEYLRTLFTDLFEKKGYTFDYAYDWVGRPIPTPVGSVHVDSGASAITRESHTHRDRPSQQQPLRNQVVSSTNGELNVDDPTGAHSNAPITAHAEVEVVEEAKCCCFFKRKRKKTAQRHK

[8] = target: RAC-alpha serine/threonine-protein kinase (Homo sapiens) (UniProt P31749); experiment: Inhibition of human PKBalpha assessed as residual activity at 1 uM relative to control
Sequence of RAC-alpha serine/threonine-protein kinase (Homo sapiens) (P31749 whole entry): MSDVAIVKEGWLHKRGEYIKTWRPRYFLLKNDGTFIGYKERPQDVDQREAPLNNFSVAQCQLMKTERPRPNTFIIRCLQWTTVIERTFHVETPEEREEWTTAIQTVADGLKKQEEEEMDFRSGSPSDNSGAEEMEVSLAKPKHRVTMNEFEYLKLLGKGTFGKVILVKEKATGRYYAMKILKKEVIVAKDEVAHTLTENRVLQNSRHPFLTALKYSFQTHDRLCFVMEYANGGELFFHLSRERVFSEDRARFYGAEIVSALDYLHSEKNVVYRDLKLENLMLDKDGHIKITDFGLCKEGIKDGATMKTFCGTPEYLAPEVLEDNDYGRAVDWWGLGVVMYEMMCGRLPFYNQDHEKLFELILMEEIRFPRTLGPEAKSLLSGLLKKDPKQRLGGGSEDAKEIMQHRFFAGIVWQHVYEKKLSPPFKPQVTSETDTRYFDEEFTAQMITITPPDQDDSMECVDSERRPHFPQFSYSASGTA

Row | Activity [1] [%] | Activity [2] [%] | Activity [3] [%] | Activity [4] [%] | Activity [5] [%] | Activity [6] [%] | Activity [7] [%] | Activity [8] [%] | Compound
1 | 96 | 89 | 91 | 92 | 85 | 72 | 44 | 119 | COc1ccc(-c2nc3cc(-c4csc(C(=O)NCC(C)C)c4)cnc3[nH]2)cc1
2 | 85 | 98 | 88 | 92 | 85 | 76 | 29 | 111 | COc1ccc(-c2nc3cc(-c4csc(C(=O)NCCC(C)C)c4)cnc3[nH]2)cc1
3 | 90 | 90 | 86 | 85 | 79 | 74 | 65 | 107 | COc1ccc(-c2nc3cc(-c4csc(C(=O)NCC(C)(C)C)c4)cnc3[nH]2)cc1
